Measurements from patent publication US10669296B2, “LXR agonists and uses thereof” (Rgenix, Inc., priority 2014, dated 2020).

How the values were obtained:
Cancer cells (MeWo) = assay: Matrigel invasion assay; format: cell-based; conditions: 1 μM drug, invasion 24 h
Method: Cancer cells (MeWo) were pre-treated in presence of 1 μM drug or control (DMSO) for 72 h after which cancer cells were switched to serum-starvation in 0.2% FBS DMEM-based media for 16 h in the presence of the drug or control, respectively. Trans-well invasion chambers (354480, BD Biosciences, Bedford, Mass.) were pre-equilibrated in DMEM-based media prior to the beginning of the assay by adding 0.5 ml of starvation media to the top and bottom chambers. After 30 min, the media in the top chamber was removed, and 0.5 ml of media containing 1×10^5 cancer cells in the presence of the drug, was added into each matrigel-coated trans-well insert. Cells were allowed to invade through the matrigel-coated inserts for 24 h at 37° C.

ApoE = ApoE gene expression analysis by qRT-PCR in MeWo cancer cells; format: cell-based; conditions: 48 h; for Emax at 1 µM / Emax at 10 µM: read-out: ApoE gene expression in relation to GW3965 at 1 μM (100%)
Method: Cancer cells (MeWo) were treated in presence of drug or control (DMSO) at indicated concentrations for 48 h. RNA was extracted from whole cell lysates using the Total RNA Purification Kit (17200, Norgen, Thorold, Canada). 600 ng of total RNA was then reverse transcribed into cDNA using the Verso cDNA Synthesis Kit (AB-1453/B, Fisher Scientific). 6 ng of the resulting cDNA was then mixed with SYBR green PCR Master Mix (4309155, Applied Biosystems) and the appropriate primers. Each reaction was performed in quadruplicate, and mRNA expression was quantified by performing real-time PCR amplification using a StepOne Plus Real-Time PCR System (Applied Biosystems). GAPDH was used as an endogenous control for normalization. EC50 values were calculated using Prism6 software and plotting expression values versus drug concentration. The following primers were used: [table] The results are shown in relation to GW3965 ApoE expression at 1 μM (i.e. 100%).

O=C(Cc1cccc(OCCCN(Cc2cccc(C(F)(F)F)c2Cl)CC(c2ccccc2)c2ccccc2)c1)NO [Compound 1, 2-{3-[3-({[2-chloro-3-(trifluoromethyl)phenyl]methyl}(2,2-diphenylethy)amino)propoxy]phenyl}-N-hydroxyacetamide]
% of Cells Migrated Compared to Control (Cancer cells (MeWo)): <95%
EC50 (ApoE; Homo sapiens, MeWo): < 1000 nM
Emax at 1 µM (ApoE; Homo sapiens, MeWo, 1 μM): > 80%
Emax at 10 µM (ApoE; Homo sapiens, MeWo): < 40%

C[C@H](CCOc1cc(F)c(CO)c(S(C)(=O)=O)c1)N(Cc1cccc(C(F)(F)F)c1Cl)CC(c1ccccc1)c1ccccc1 [Compound 9, {4-[(3R)-3-({[2-chloro-3-(trifluoromethyl)phenyl]methyl}(2,2-diphenylethyl)amino)butoxy]-2-fluoro-6-methanesulfonylphenyl}methanol]
% of Cells Migrated Compared to Control (Cancer cells (MeWo)): <50%
EC50 (ApoE; Homo sapiens, MeWo): < 300 nM
Emax at 1 µM (ApoE; Homo sapiens, MeWo, 1 μM): > 40%
Emax at 10 µM (ApoE; Homo sapiens, MeWo): > 80%

CS(=O)(=O)N1CCCC(OCCCN(Cc2cccc(C(F)(F)F)c2Cl)CC(c2ccccc2)c2ccccc2)C1 (centres unmarked) [Compound 29, {[2-chloro-3-(trifluoromethyl)phenyl]methyl}(2,2-diphenylethyl){3-[(1-methanesulfonylpiperidin-3-yl)oxy]propyl}amine]
% of Cells Migrated Compared to Control (Cancer cells (MeWo)): <50%
ApoE gene expression in relation to GW3965 at 1 μM (100%) (ApoE; 1 μM): ++ (“++” > 40% induction)
EC50 (ApoE): < 300 nM
Emax at 10 µM (ApoE; Homo sapiens, MeWo): > 80%

C[C@H](CCO[C@H]1CCCN(S(C)(=O)=O)C1)N(Cc1cccc(C(F)(F)F)c1Cl)CC(c1ccccc1)c1ccccc1 [Compound 31, {[2-chloro-3-(trifluoromethyl)phenyl]methyl}(2,2-diphenylethyl)[(2R)-4-{[(3S)-1-methanesulfonylpiperidin-3-yl]oxy}butan-2-yl]amine]
% of Cells Migrated Compared to Control (Cancer cells (MeWo)): <70%
EC50 (ApoE; Homo sapiens, MeWo): < 1000 nM
Emax at 1 µM (ApoE; Homo sapiens, MeWo, 1 μM): > 40%
Emax at 10 µM (ApoE; Homo sapiens, MeWo): > 80%

C[C@@H](CN(CCCOc1cc(F)c(CO)c(S(C)(=O)=O)c1)Cc1cccc(C(F)(F)F)c1Cl)c1ccccc1 [Compound 79, {4-[3-({[2-chloro-3-(trifluoromethyl)phenyl]methyl}[(2R)-2-phenylpropyl]amino)propoxy]-2-fluoro-6-methanesulfonylphenyl}methanol]
EC50 (ApoE; Homo sapiens, MeWo): < 1000 nM
Emax at 1 µM (ApoE; Homo sapiens, MeWo, 1 μM): > 80%
Emax at 10 µM (ApoE; Homo sapiens, MeWo): > 80%

C[C@H](CN(CCCOc1cc(F)c(CO)c(S(C)(=O)=O)c1)Cc1cccc(C(F)(F)F)c1Cl)c1ccccc1 [Compound 80, {4-[3-({[2-chloro-3-(trifluoromethyl)phenyl]methyl}[(2S)-2-phenylpropyl]amino)propoxy]-2-fluoro-6-methanesulfonylphenyl}methanol]
EC50 (ApoE; Homo sapiens, MeWo): < 1000 nM
Emax at 1 µM (ApoE; Homo sapiens, MeWo, 1 μM): > 80%
Emax at 10 µM (ApoE; Homo sapiens, MeWo): > 80%

CS(=O)(=O)c1cc(OCCCN(CCc2ccccc2)Cc2cccc(C(F)(F)F)c2Cl)cc(F)c1CO [Compound 81, {4-[3-({[2-chloro-3-(trifluoromethyl)phenyl]methyl}(2-phenylethyl)amino)propoxy]-2-fluoro-6-methanesulfonylphenyl}methanol]
EC50 (ApoE; Homo sapiens, MeWo): < 300 nM
Emax at 1 µM (ApoE; Homo sapiens, MeWo, 1 μM): > 40%
Emax at 10 µM (ApoE; Homo sapiens, MeWo): > 40%

CC(C)(CN(CCCOc1cc(F)c(CO)c(S(C)(=O)=O)c1)Cc1cccc(C(F)(F)F)c1Cl)c1ccccc1 [Compound 82, {4-[3-({[2-chloro-3-(trifluoromethyl)phenyl]methyl}(2-methyl-2-phenylpropyl)amino)propoxy]-2-fluoro-6-methanesulfonylphenyl}methanol]
Emax at 1 µM (ApoE; Homo sapiens, MeWo, 1 μM): > 40%

CS(=O)(=O)c1cc(OCCCN(Cc2ccccc2)Cc2cccc(C(F)(F)F)c2Cl)cc(F)c1CO [Compound 83, (4-{3-[benzyl({[2-chloro-3-(trifluoromethyl)phenyl]methyl})amino]propoxy}-2-fluoro-6-methanesulfonylphenyl) methanol]
EC50 (ApoE; Homo sapiens, MeWo): < 1000 nM
Emax at 1 µM (ApoE; Homo sapiens, MeWo, 1 μM): > 80%

[2H]C([2H])(O)c1c(F)cc(OCCCN(Cc2cccc(C(F)(F)F)c2Cl)CC(c2ccccc2)c2ccccc2)cc1S(C)(=O)=O [Compound 84, {4-[3-({[2-chloro-3-(trifluoromethyl)phenyl]methyl}(2,2-diphenylethyl)amino)propoxy]-2-fluoro-6-methanesulfonylphenyl}(^2H2)methanol]
Emax at 1 µM (ApoE; Homo sapiens, MeWo, 1 μM): > 40%
Emax at 10 µM (ApoE; Homo sapiens, MeWo): > 40%

CC(O)c1c(F)cc(OCCCN(Cc2cccc(C(F)(F)F)c2Cl)CC(c2ccccc2)c2ccccc2)cc1S(C)(=O)=O (centres unmarked) [Compound 85, 1-{4-[3-({[2-chloro-3-(trifluoromethyl)phenyl]methyl}(2,2-diphenylethyl)amino)propoxy]-2-fluoro-6-methanesulfonylphenyl}ethan-1-ol]
EC50 (ApoE; Homo sapiens, MeWo): < 1000 nM
Emax at 1 µM (ApoE; Homo sapiens, MeWo, 1 μM): > 80%

CC(=O)c1c(F)cc(OCCCN(Cc2cccc(C(F)(F)F)c2Cl)CC(c2ccccc2)c2ccccc2)cc1S(C)(=O)=O [Compound 87, 1-{4-[3-({[2-chloro-3-(trifluoromethyl)phenyl]methyl}(2,2-diphenylethyl)amino)propoxy]-2-fluoro-6-methanesulfonylphenyl}ethan-1-one]
Emax at 1 µM (ApoE; Homo sapiens, MeWo, 1 μM): > 40%

CS(=O)(=O)c1cc(OCCCN(Cc2cccc(C(F)(F)F)c2Cl)CC(c2ccccc2)c2ccccc2)cc(F)c1CN [Compound 88, {4-[3-({[2-chloro-3-(trifluoromethyl)phenyl]methyl}(2,2-diphenylethyl)amino)propoxy]-2-fluoro-6-methanesulfonylphenyl}methanamine]
Emax at 1 µM (ApoE; Homo sapiens, MeWo, 1 μM): > 80%

CC(=O)NCc1c(F)cc(OCCCN(Cc2cccc(C(F)(F)F)c2Cl)CC(c2ccccc2)c2ccccc2)cc1S(C)(=O)=O [Compound 89, N-({4-[3-({[2-chloro-3-(trifluoromethyl)phenyl]methyl}(2,2-diphenylethyl)amino)propoxy]-2-fluoro-6-methanesulfonylphenyl}methyl)acetamide]
EC50 (ApoE; Homo sapiens, MeWo): < 1000 nM
Emax at 1 µM (ApoE; Homo sapiens, MeWo, 1 μM): > 80%
Emax at 10 µM (ApoE; Homo sapiens, MeWo): > 80%

CS(=O)(=O)c1cc(OCCCN(Cc2cccc(C(F)(F)F)c2Cl)CC(c2ccccc2)c2ccccc2)cc(F)c1C(N)=O [Compound 90, 4-[3-({[2-chloro-3-(trifluoromethyl)phenyl]methyl}(2,2-diphenylethyl)amino)-propoxy]-2-fluoro-6-methanesulfonylbenzamide]
EC50 (ApoE; Homo sapiens, MeWo): < 1000 nM
Emax at 1 µM (ApoE; Homo sapiens, MeWo, 1 μM): > 80%

CS(=O)(=O)c1cc(OCCCN(Cc2cccc(C(F)(F)F)c2Cl)CC(c2ccccc2)c2ccccc2)cc(F)c1CCO [Compound 91, 2-{4-[3-({[2-chloro-3-(trifluoromethyl)phenyl]methyl}(2,2-diphenylethyl)amino)propoxy]-2-fluoro-6-methanesulfonylphenyl} ethan-1-ol]
Emax at 1 µM (ApoE; Homo sapiens, MeWo, 1 μM): > 80%
Emax at 10 µM (ApoE; Homo sapiens, MeWo): > 40%

CNC(=O)c1c(F)cc(OCCCN(Cc2cccc(C(F)(F)F)c2Cl)CC(c2ccccc2)c2ccccc2)cc1S(C)(=O)=O [Compound 92, 4-[3-({[2-chloro-3-(trifluoromethyl)phenyl]methyl}(2,2-diphenylethyl)amino)-propoxy]-2-fluoro-6-methanesulfonyl-N-methylbenzamide]
Emax at 1 µM (ApoE; Homo sapiens, MeWo, 1 μM): > 40%

CS(=O)(=O)c1cc(OCCCN(Cc2cccc(C(F)(F)F)c2Cl)CC(c2ccccc2)c2ccccc2)cc(F)c1C(=O)C(F)(F)F [Compound 93, 1-{4-[3-({[2-chloro-3-(trifluoromethyl)phenyl]methyl}(2,2-diphenylethyl)amino)propoxy]-2-fluoro-6-methanesulfonylphenyl}-2,2,2-trifluoroethan-1-one]
Emax at 1 µM (ApoE; Homo sapiens, MeWo, 1 μM): < 40%
Emax at 10 µM (ApoE; Homo sapiens, MeWo): < 40%

CS(=O)(=O)c1cc(OCCCN(Cc2cccc(C(F)(F)F)c2Cl)CC(c2ccccc2)c2ccccc2)cc(F)c1C(O)C(F)(F)F (centres unmarked) [Compound 95, 1-{4-[3-({[2-chloro-3-(trifluoromethyl)phenyl]methyl}(2,2-diphenylethyl)amino)propoxy]-2-fluoro-6-methanesulfonylphenyl}-2,2,2-trifluoroethan-1-ol]
Emax at 1 µM (ApoE; Homo sapiens, MeWo, 1 μM): > 40%

CN(C)C(=O)c1c(F)cc(OCCCN(Cc2cccc(C(F)(F)F)c2Cl)CC(c2ccccc2)c2ccccc2)cc1S(C)(=O)=O [Compound 96, 4-[3-({[2-chloro-3-(trifluoromethyl)phenyl]methyl}(2,2-diphenylethyl)amino)propoxy]-2-fluoro-6-methanesulfonyl-N,N-dimethylbenzamide]
Emax at 1 µM (ApoE; Homo sapiens, MeWo, 1 μM): > 40%

CC(CCOc1cccc(CC(=O)O)c1)N(Cc1cccc(C(F)(F)F)c1Cl)CC(c1ccccc1)c1ccccc1 (centres unmarked) [SB742881, reference compound]
% of Cells Migrated Compared to Control (Cancer cells (MeWo)): <70%
EC50 (ApoE; Homo sapiens, MeWo): < 1000 nM
Emax at 1 µM (ApoE; Homo sapiens, MeWo, 1 μM): > 40%
Emax at 10 µM (ApoE; Homo sapiens, MeWo): > 40%
